From US12565485B2, “Solid forms of 1-((S)-4-((R)-7-(6-amino-4-methyl-3-(trifluoromethyl)pyridin-2-yl)-6-chloro-8-fluoro-2-(((s)-1-methylpyrrolidin-2-yl)methoxy)quinazolin-4-yl)-3-methylpiperazin-1-yl)prop-2-en-1-one” (Genentech, Inc., priority 2022, dated 2026)

Columns and labels:
Assay type in all cases: physicochemical
[1] = Slurry conversion experiments (XRPD of isolated solids); details: for Slurry conversion result (XRPD form): different solvent systems
Protocol: Slurry conversion experiments were conducted at RT in different solvent systems. About 15˜20 mg of freebase starting material (Compound 1) was suspended in 0.5 mL of solvent in an HPLC vial. Solids were isolated for XRPD analysis after magnetically stirring at RT.
Slurry at 5°. Slurry conversion experiments were conducted at 5° C. in different solvent systems. About 15˜20 mg of freebase starting material (Compound 1) was suspended in 0.5 mL of solvent in an HPLC vial. Solids were isolated for XRPD analysis after magnetically stirring at 5° C.
Slurry at 50°. Slurry conversion experiments were conducted at 50° C. in different solvent systems. About 20 mg of freebase starting material (Compound 1) was suspended in 0.5 mL of solvent in an HPLC vial. Solids were isolated for XRPD analysis after magnetical stirring at 50° C.
Slurry at RT for Compound A. Slurry conversion experiments were conducted at RT in different solvent systems. […] Solids were isolated for XRPD analysis after magnetic stirring at RT.
Slurry at 50° for Compound A. Slurry conversion experiments were conducted at 50° C. in different solvent systems. […] Solids were isolated for XRPD analysis after magnetic stirring at 50° C.

[2] = Heating under N2 protection (VT-XRPD), form change; details: heating to 100° C. under N2 protection, cooled down and exposed to ambient conditions; listed as adipate Type A
Protocol: Compound B Form A was obtained from an acetone system and the sample was air dried at RT. […] (peak temperature) before the possible overlapped peak with peak temperature at 156.3° C. (FIG. 12). Based on the integrals, the stoichiometric ratio of fumaric acid:freebase was determined to be 1.03. A peak of acetone was observed and approximately 0.49 molar acetone (4.4 wt %) was detected. The HPLC purity of Compound B Form A was determined to be 93.56 area %. […] Around 0.39 molar acetone (3.5 wt %) was still detected. One endotherm at 58.7° C. and an overlapped peak with peak temperature at 157.1° C. were still observed on the sample obtained after heating. The first endotherm might be caused by re-adsorption of moisture. Since ˜3.5 wt % acetone was still detected from NMR, Compound B Form A is expected to be an acetone/H2O co-solvate. […]

[3] = Solid vapor diffusion; details: RT; for Result: Compound A
Protocol: Solid vapor diffusion Compound A. Solid vapor diffusion experiments were conducted using 12 different solvents. […] The 20-mL vial was sealed with a cap and kept at RT allowing solvent vapor to interact with the sample.

C=CC(=O)N1CCN(c2nc(OC[C@@H]3CCCN3C)nc3c(F)c(-c4nc(N)cc(C)c4C(F)(F)F)c(Cl)cc23)[C@@H](C)C1 [Compound A Form A]
Slurry conversion result (XRPD form) ([1]; 50° C.): Compound A Form A was obtained
Result ([1]; Compound A slurry at 50° C., Anisole): Compound A Form A
Result ([1]; Compound A slurry at 50° C., CPME): Compound A Form A
Result ([1]; Compound A slurry at 50° C., EtOAc): Compound A Form A
Result ([1]; Compound A slurry at 50° C., IPAc): Compound A Form A
Result ([1]; Compound A slurry at 50° C., MIBK): Compound A Form A
Result ([1]; Compound A slurry at 50° C., MTBE): Compound A Form A
Result ([1]; Compound A slurry at 50° C., Toluene): Compound A Form A
Result ([1]; Compound A slurry at 50° C., n-Heptane): Compound A Form A
Result ([1]; Compound A slurry at RT, 1,4-Dioxane): Compound A Form A
Result ([1]; Compound A slurry at RT, 1,4-Dioxane/IPAc, 1:3): Compound A Form A
Result ([1]; Compound A slurry at RT, 1,4-Dioxane/n-Heptane, 1:3): Compound A Form A
Result ([1]; Compound A slurry at RT, 2-MeTHF/Toluene, 1:4): Compound A Form A
Result ([1]; Compound A slurry at RT, ACN): Compound A Form A
Result ([1]; Compound A slurry at RT, Acetone): Compound A Form A
Result ([1]; Compound A slurry at RT, Acetone/Anisole, 1:3): Compound A Form A
Result ([1]; Compound A slurry at RT, Acetone/n-Heptane, 1:3): Compound A Form A
Result ([1]; Compound A slurry at RT, DCM/IPA, 1:4): Compound A Form A
Result ([1]; Compound A slurry at RT, DMSO/H2O, 1:6): Clear solution
Result ([1]; Compound A slurry at RT, EtOH/n-Heptane, 1:6): Compound A Form A
Result ([1]; Compound A slurry at RT, H2O): Clear solution
Result ([1]; Compound A slurry at RT, H2O/ACN, 1:4): Gel
Result ([1]; Compound A slurry at RT, H2O/IPA, 1:4): Gel
Result ([1]; Compound A slurry at RT, IPA): Compound A Form A
Result ([1]; Compound A slurry at RT, MEK): Compound A Form A
Result ([1]; Compound A slurry at RT, MEK/MTBE, 1:3): Compound A Form A
Result ([1]; Compound A slurry at RT, MEK/n-Heptane, 1:3): Compound A Form A
Result ([1]; Compound A slurry at RT, MeOH/CPME, 1:6): Compound A Form A
Result ([1]; Compound A slurry at RT, THF/H2O, 1:6): Clear solution
Slurry conversion result (XRPD form) ([1]; RT): adipate Type A was obtained
Form change after heating [2]: very slight differences were observed before and after heating
Result ([3]; 1,4-Dioxane vapor): Compound A Form A
Result ([3]; ACN vapor): Compound A Form A
Result ([3]; Acetone vapor): Compound A Form A
Result ([3]; DCM vapor): Compound A Form A
Result ([3]; DMF vapor): Compound A Form A
Result ([3]; DMSO vapor): Compound A Form A
Result ([3]; EtOAc vapor): Compound A Form A
Result ([3]; EtOH vapor): Compound A Form A
Result ([3]; H2O vapor): Compound A Form A
Result ([3]; IPA vapor): Compound A Form A
Result ([3]; MeOH vapor): Compound A Form A
Result ([3]; THF vapor): Compound A Form A
Solid vapor diffusion result (XRPD form) ([3]; 12 different solvents): Compound A Form A was obtained
